Results: patent US20060111305A1, “Metabolites of certain [1,4]diazepino[6,7,1-ij]quinoline derivatives and methods of preparation and use thereof” (Wyeth, priority 2004, published 2006)

Tests used:
[1] = Metabolite profiles of DCDQ in human plasma and urine by LC/MS (Table 33); type: in vivo, healthy human subjects; parameters: key to Matrix (in which DCDQ / metabolite was characterized by LC/MS): P = plasma; U = urine; conditions: for Matrix (in which DCDQ / metabolite was characterized by LC/MS): human plasma and urine, healthy subjects receiving DCDQ
Protocol: Drug administration and specimen collection were performed in a randomized, double-blinded, placebo-controlled, ascending single dose study of the safety, tolerability, pharmacokinetics, and pharmacodynamics of DCDQ administered orally to healthy subjects and subjects with schizophrenia and schizoaffective disorder. The specimens were stored at approximately −70° C. until analysis for metabolite profiles and for ratios of carbamoyl glucuronide (M6) to DCDQ.
Two subjects with medium and high exposure to DCDQ in the 25 mg multiple ascending dose study were also analyzed by LC/MS for metabolite profiles. The 8 hr plasma samples collected on day 1 and day 14 from subjects 9 and 41 were processed and analyzed as described below. No internal standard was added to the samples analyzed for metabolite profiles.
LC/MS System 1 was used for analysis of plasma and urine samples for metabolite characterization. The HPLC equipment used with this LC/MS System consisted of an Agilent Model 1100 HPLC system (Agilent Technologies, Palo Alto, Calif.) including an autosampler, binary pump and diode array UV detector. The UV detector was set to monitor 210 to 350 nm. The HPLC mobile phase consisted of 10 mM ammonium acetate, pH 4.5 (A) and methanol (B), and was delivered at 0.2 mL/min. The linear mobile phase gradient (HPLC Gradient 1) is shown below. During LC/MS sample analysis, up to 6 min of the initial flow was diverted away from the mass spectrometer prior to evaluation of metabolites.
The mass spectrometer used for metabolite characterization with LC/MS System 1 was a Finnigan LCQ-Deca ion trap mass spectrometer (Thermo Electron, San Jose, Calif.). This mass spectrometer was equipped with an electrospray ionization (ESI) interface and operated in the positive ionization mode. Settings for the LCQ mass spectrometer are listed below.
LC/MS System 2 was used to provide additional MS/MS data for characterization of DCDQ metabolites in urine. The HPLC equipment used with LC/MS System 2 consisted of a Waters model 2695 HPLC system (Waters Corp., Milford, Mass.). It was equipped with a built-in autosampler and a model 996 diode array UV detector. The UV detector was set to monitor 210-400 nm. The HPLC column, mobile phases, flow rate, diversion of flow away from the mass spectrometer and gradient were as described above for LC/MS System 1. The column temperature was 25° C.
The mass spectrometer used for metabolite characterization with LC/MS System 2 was a Micromass Quattro Micro triple quadrupole mass spectrometer (Waters Corp.). This mass spectrometer was equipped with an electrospray interface and operated in the positive ionization mode. Settings for this mass spectrometer are listed below.

[2] = Incubation of [14C]DCDQ with human liver microsomes (Km values, metabolite formation); type: in vitro ADME; conditions: for metabolite detected in microsomal incubation: human
Protocol: (§1) [^14C]DCDQ was mixed with non-radiolabeled DCDQ (1:3 or 1:5) in the incubations. Microsomal incubations consisted of [^14C]DCDQ, magnesium chloride (10 mM) and liver microsomes incubated in 0.5 mL of 0.1 M potassium phosphate buffer, pH 7.4. [^14C]DCDQ (20 μL) in water was added to the incubation tubes containing buffer, magnesium chloride solution and microsomes. After mixing, the tubes were pre-incubated for 2 minutes in a shaking water bath at 37° C. The reactions were initiated by the addition of UDPGA or the NADPH regenerating system. UDPGA was added to incubations as a 50 μL aliquot of a 20 mM solution in water, to give a final concentration of 2 mM. An NADPH regenerating system (30 μL) was added to incubations to evaluate CYP450-mediated metabolism. The NADPH regenerating system consisted of glucose-6-phosphate (2 mg/mL), glucose-6-phosphate dehydrogenase (0.8 units/mL) and NADP^+ (2 mg/mL). Control incubations were conducted under the same conditions, but without the NADPH generating system, UDPGA or microsomes. All incubations were performed in duplicate. Incubations were stopped by the addition of 0.5 mL ice-cold methanol. Samples were vortex-mixed. Denatured proteins were separated by centrifugation at 4300 rpm and 4° C. for 10 minutes (Model T21 super centrifuge, Sorvall). The protein pellets were extracted with 0.5 mL of methanol. The supernatant was combined for each sample, mixed and evaporated to a volume of about 0.3 mL under a nitrogen stream in a Zymark TurboVap LV evaporator (Caliper Life Science, Hopkinton, Mass.). The concentrated sample was centrifuged and aliquots were radioassayed and analyzed by HPLC. This method recovered an average of 92.1% of the radioactivity from the reaction mixture.
(§2) Initial rate conditions were determined for DCDQ metabolism in incubations with human liver microsomes in the presence of NADPH or UDPGA. Incubations for the time course study contained 20 μM of [^14C]DCDQ and 0.5 mg/mL of microsomal proteins, and were incubated at 37° C. with mild shaking for 0, 5, 10, 20, 30, 40, 50 and 60 minutes. The protein dependence study was conducted with 20 μM of [^14C]DCDQ incubated for 20 minutes with 0, 0.1, 0.25, 0.5, 0.75 and 1.0 mg/mL of microsomal proteins.
(§3) The Km values were determined with 0.5 mg/mL of human liver microsomes incubated with [^14C]DCDQ for 20 minutes with the NADPH regenerating system or for 10 minutes with UDPGA. [^14C]DCDQ concentrations used were 0.5,1, 5, 10, 25, 50, 75 and 100 μM.
(§4) To evaluate species differences in cytochrome P450- and UGT-mediated metabolism, [^14C]DCDQ was incubated for 20 minutes with 0.5 mg/mL liver microsomal proteins from mice, rats, dogs or humans in the presence of the NADPH regenerating system or UDPGA. The assay conditions were the same as described above, and DCDQ concentrations were 12 μM and 56 μM for cytochrome P450- and UGT-mediated metabolism, respectively.
(§5) A Waters model 2690 HPLC system (Waters Corp., Milford, Mass.) with a built-in autosampler was used for analysis. Separations were accomplished on a Phenomenex Luna C18(2) column (2×150 mm, 5 μm) (Phenomenex, Torrance, Calif.) coupled with a filter (4×2 mm) cartridge. A variable wavelength UV detector set to monitor 250 nm and Flo-One β Model A525 radioactivity flow detector (Perkin Elmer) with a 250 μL LQTR flow cell were used for data acquisition. The flow rate of Ultima Flow M scintillation fluid was 1 mL/min, providing a mixing ratio of scintillation cocktail to mobile phase of 5:1. The sample chamber in the autosampler was maintained at 4° C., while the column was at ambient temperature of about 20° C. The mobile phase consisted of 10 mM ammonium acetate, pH 4.5 (A) and methanol (B) and was delivered at 0.2 mL/min. The linear gradient conditions were as follows: […]

[3] = tested on: cytochrome P450 (NADPH-dependent metabolism); assay: as above; type: in vitro ADME; conditions: pH 7.4; 0.5 mg/mL human liver microsomes, [14C]DCDQ 0.5-100 μM, NADPH regenerating system, 20 min
Protocol: as §1, §2, §3, §4, §5

[4] = NADPH regenerating system, 12 μM DCDQ, 20 min

Row | SMILES | relative abundance in human plasma ([1]; all dose groups, single and multiple dose studies) | Matrix (in which DCDQ / metabolite was characterized by LC/MS) [1] | relative abundance in human urine ([1]; in vivo) | amount of metabolite detected ([2]; human liver microsomes, DCDQ 20 μM, both NADPH and UDPGA) | metabolite detected in microsomal incubation ([2]; UDPGA, 56 μM DCDQ) | Km at 20 min [3] [µM] | metabolite detected in microsomal incubation [2, 4]
1 | O=C(O)[C@H]1O[C@@H](OC(=O)N2CCN3C[C@@H]4CCC[C@@H]4c4cccc(c43)C2)[C@H](O)[C@@H](O)[C@@H]1O [Metabolite M6, carbamoyl glucuronide of DCDQ] | predominant drug-related component | P, U | predominant drug-related component | only minor amounts | detected | – | –
2 | c1cc2c3c(c1)[C@H]1CCC[C@H]1CN3CCNC2 [DCDQ, (9aR,12aS)-4,5,6,7,9,9a,10,11,12,12a-decahydro-cyclopenta[c][1,4]diazepine[6,7,1-ij]quinoline, reference compound] | – | P, U | – | – | – | – | –
3 | OC1[C@@H]2CCC[C@@H]2c2cccc3c2N1CCNC3 (some centres unmarked) [Metabolite M2, hydroxy DCDQ] | – | – | – | – | – | 8.9 to 13.8 | detected

The remaining lines, values ahead:

Row | relative abundance in human plasma ([1]; all dose groups, single and multiple dose studies) | Matrix (in which DCDQ / metabolite was characterized by LC/MS) [1] | relative abundance in human urine ([1]; in vivo) | amount of metabolite detected ([2]; human liver microsomes, DCDQ 20 μM, both NADPH and UDPGA) | metabolite detected in microsomal incubation ([2]; UDPGA, 56 μM DCDQ) | Km at 20 min [3] [µM] | metabolite detected in microsomal incubation [2, 4] | SMILES
4 | – | P, U | – | – | – | 10.8 | detected | OC1CN2C[C@@H]3CCC[C@@H]3c3cccc(c32)CN1 (some centres unmarked) [Metabolite M1, hydroxy DCDQ]
5 | – | P | – | – | – | 36.2 | detected | [O-][N+]12CCN=Cc3cccc(c31)[C@H]1CCC[C@H]1C2 (some centres unmarked) [Metabolite M5, DCDQ imine N-oxide]
